Data from US4458077A, “Heterocyclic anti-ulcer agents” (American Home Products Corporation, priority 1982, dated 1984).
Like-named read-outs stand apart in the source and are kept apart here.

Columns and labels:
H2 histamine receptors = H2 histamine receptors (Cavia porcellus, UniProt P47747); test: guinea pig heart atrium test: inhibition of histamine-induced positive chronotropic response (H2 antagonist activity)
Experimental: (§1) The results for some of the compounds of the invention in these procedures is presented at the end of the following examples, which will serve to illustrate the present invention.
The guniea pig heart atrium test is carried out as follows:
A guinea pig right atrium is suspended at 1 g. tension (isometric) in a thermostatically controlled (32° C.) tissue bath (10 ml) containing oxygenated (95% O2; 5% CO2) Krebs-Haenseleit buffer (pH 7.4). The tissue is allowed to stabilize over 1 hour. Individual contractions are recorded with a force-displacement transducer through a strain gauge coupler. A control dose-response curve to histamine in the above described tissue bath is obtained after which the tissue is washed 3 times and allowed to re-equilibrate to basal rate. The test compound is added to the tissue bath at the desired final concentration. Thirty minutes after addition of the compound, a fresh histamine dose response curve is again obtained. Then the response to histamine in the presence of antagonist is compared to the histamine control response. This procedure is repeated, using fresh tissues, for each concentration of antagonist tested. The result is expressed as the apparent dissociation constant (pA2) of the H2 antagonist as determined by standard procedures. Cimetidine is used as the standard for this test.

gastric acid secretion = test: gastric secretion in the pylorus-ligated rat (modified Shay procedure); type: in vivo; conditions: 32 mg/kg, interduodenally (i.d.), pylorus-ligated male Charles River rats, 4 hours after ligation
Experimental: as §1
The procedure for testing gastric secretion in the rat, a modification of the procedure of Shay et al., Gastroenterology, 26, 906-13 (1954) is carried out as follows:
Male Charles River rats weighing 200-300 grams are deprived of food but not water for 24 hours prior to use. Water is, however, withheld during the experiment. The rats are weighed, anesthetized, and the pylorus ligated according to the method of Shay et al. Treatment or vehicle control is then administered interduodenally (i.d.). Rats are housed 2/cage and sacrificed with CO2 four hours after ligation. The stomachs are removed, rinsed, and contents emptied into a graduated centrifuge tube. The tubes are centrifuged for 20 minutes at 2,000 RPM and the volume of gastric juice recorded. Any samples obviously contamined by feces, food or hemolysis are eliminated. An aliquot of each is frozen for later analysis of Na^+, K^+ and Cl^- concentration. The pH is measured and 1 ml. of gastric juice is titrated with 0.1N NaOH to a pH of 7.0-7.4. Titrable acid output is calculated in microequivalents and the percent inhibition of acid output is calculated as follows: [formula]

[1] = background, cited from earlier work
[2] = apparent dissociation constant (pA2) vs histamine, guinea pig right atrium, 32° C, pH 7.4, 30 min after compound, three experiments, read-out: pA2 Value (converted)

Chain of H2 histamine receptors (P47747 whole entry): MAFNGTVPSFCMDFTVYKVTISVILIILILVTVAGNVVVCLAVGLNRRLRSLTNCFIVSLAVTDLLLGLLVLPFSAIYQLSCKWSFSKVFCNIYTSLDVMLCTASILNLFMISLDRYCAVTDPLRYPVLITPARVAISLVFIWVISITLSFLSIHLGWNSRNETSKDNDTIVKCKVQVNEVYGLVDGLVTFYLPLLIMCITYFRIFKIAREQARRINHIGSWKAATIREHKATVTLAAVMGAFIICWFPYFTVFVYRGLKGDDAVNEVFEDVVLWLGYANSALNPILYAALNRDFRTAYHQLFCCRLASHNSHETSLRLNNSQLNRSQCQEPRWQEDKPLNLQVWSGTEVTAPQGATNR

SMILES: CNC(=C[N+](=O)[O-])NOCCOCc1ccc(CN(C)C)o1 [Example 2, N-[2-[[5-[(dimethylamino)methyl]-2-furanyl]methoxy]ethoxy]-N'-methyl-2-nitro-1,1-ethenediamine, ethanedioate]
- Kb (H2 histamine receptors; [2]): 9.12 µM

SMILES: CNC(=S)NOCCOCc1ccc(CN(C)C)o1 [Example 4, N-[2-[[5-[(dimethylamino)methyl]-2-furanyl]methoxy]ethoxy]-N'-methyl-thiourea, 1/2 hydrate]
- Kb (H2 histamine receptors; [2]): 1.26 µM

SMILES: CNC(=C[N+](=O)[O-])NOCCCc1csc(NC(=N)N)n1 [Example 5, [4-[3-[[[1-(methylamino)-2-nitroethenyl]amino]oxy]propyl]-2-thiazolyl]guanidine]
- Kb (H2 histamine receptors; printed in pA2 column, footnote *: KB value, result of only one experiment, guinea pig right atrium vs histamine, read-out: KB value): 0.108 µM
- % Inhibition (of acid output) (gastric acid secretion): 72%

SMILES: CN/C(=N/CCSCc1nc[nH]c1C)NC#N [cimetidine]
- confusional states (limitation) ([1]; elderly patients): a tendency to cause confusional states in elderly patients
- anti-androgenic activity (limitation) ([1]; patients): anti-androgenic activity
